Experimental data reported in patent US5458889A (priority 1986, dated 1995).
Read-outs that look alike come from different tables or passages of the source.

Assays:
Format in all cases: cell-based
spermatozoa [1] = assay: total spermicidal test of IPPF (death of all spermatozoa of 0.2 ml sperm in less than 5 seconds); details: for MIC: 5 seconds
Experimental: The MIC of a chemical compound depends on this compound, but also on the conditions in which it is used, i.e. on the galenical form including the composition.
(§1) The test is carried out on at least 6 sperms from various donors, satisfying the following minimal conditions from IPPF:
age of the sample: two hours;
[…] : 50 million spermatozoa;
mobility: 50% of the spermatozoa should move forward fastly when examined at 35°-37° C. in a recent sample;
viscosity: ejaculum conveniently liquefied, not filaceous and homogeneous-looking with the naked eye;
collected in sterile glass tubes hermetically closed, preserved at 37° C.
The MIC of various known spermicidal compounds were determined with the IPPF test. The following results have been obtained by 1 milliliter of composition reacting with 0.2 milliliter of sperm and by determining the minimal concentration of the spermicidal compounds that induces the death of all the spermatozoa in 5 seconds, and this with 6 sperms from various donors.
The same total spermicidal test of IPPF was carried out with 1 milliliter of composition already containing 0.0001% (in weight) of fluoride anion F^- reacting upon 0.2 milliliter of sperm, by determining the minimal concentration of the spermicidal compounds that induces the death of all the spermatozoa in 5 seconds, and this with 6 sperms from various donors.
This test consists in realizing a test identical to tests N^.
Under the same conditions previously described (Tests N^. 1 to 3), various perfluorinated benzalkonium chlorides were used as basic spermicidal compounds. It was thus shown that perfluorinated benzalkonium chlorides have a spermicide activity similar to the one of the mere benzalkonium chloride. Besides, this activity remains identical to itself under the conditions of test N^.
Test N^. 2 was also realized on perfluorinated benzalkonium chloride mixed with another chemical compound capable of emitting ion F^-.

spermatozoa [2] = assay: IPPF spermicidal test on galenical preparations after in vitro simulation of in vivo conditions; details: Test 6, form originally containing 0.45% F^-
Experimental: as §1
This test in vitro was conducted on galenical preparations including benzalkonium chloride as basic active ingredient, by determining the MIC of this benzalkonium chloride after simulation in vitro of the actual conditions in vivo (extraction, solubilization . . . ).
The percentages correspond to the proportions (in weight) of benzalkonium chloride in the solution used in vitro for the spermicidal test according to IPPF and obtained after simulation, the proportions being measured by titrating using a sample taken off from the solution.
The same conditions as during the comparative test N^. 5 were used, but from galenical forms each originally containing 0.45% (in weight) of fluoride anion F^-.

cells [3] = assay: Study of threshold of cytotoxicity (LDO)
poliomyelitis virus = details: LiF, where present, 1 mg/l
cells [4] = assay: Cell toxicity (Test 16); details: cytomegalo virus section
Source text: The following results were obtained:

spermatozoa [5] = assay: IPPF spermicidal test on galenical preparations after in vitro simulation of in vivo conditions; details: Test 5, without activating ingredient
[6] = Test 1, without F^-, 6 sperms from various donors
[7] = Test 2, composition already containing 0.0001% (in weight) fluoride anion F^-, 6 sperms
[8] = final concentration 20 mg/l, contact time 180 min
[9] = final concentration 50 mg/l, contact time 180 min
[10] = final concentration 100 mg/l, contact time 30 min
[11] = final concentration 100 mg/l, contact time 60 min
[12] = final concentration 100 mg/l, contact time 120 min
[13] = final concentration 100 mg/l, contact time 180 min

Compound	MIC (spermatozoa [1]; [6]) [% in weight]	MIC (spermatozoa [1]; [7]) [% in weight]	threshold of cytotoxicity (LDO) (cells [3]; after filtration) [%]	threshold of cytotoxicity (LDO) (cells [3]; before filtration) [%]	Viral titre (poliomyelitis virus; [8]) [PFU/ml]	Viral titre (poliomyelitis virus; [9]) [PFU/ml]	Viral titre (poliomyelitis virus; [10]) [PFU/ml]	Viral titre (poliomyelitis virus; [11]) [PFU/ml]	Viral titre (poliomyelitis virus; [12]) [PFU/ml]	Viral titre (poliomyelitis virus; [13]) [PFU/ml]	Cell Toxicity (cells [4]) [%]	further results
p-menthanylphenylpolyoxyethylene ether	0.006	0.003	–	–	–	–	–	–	–	–	–	–
F [fluoride anion F^-]	–	–	–	–	–	–	–	–	–	–	–	spermicide activity (spermatozoa [1]; IPPF test, at a titer of 5 ppm (5 milligrams per liter), 0.0833333 min): 100%; spermicidal effect in presence of sodium borate (spermatozoa [1]; Test 3, sodium borate to complex ion F^-): totally disappeared; total spermicide activity according to the IPPF test (spermatozoa [1]; solution containing 0.0001% fluoride anion F^- alone): do not have a total spermicide activity
Benzalkonium chloride	0.006	0.002	0.01	0.05	0	0	0	0	0	0	0.05	total spermicide activity according to the IPPF test (spermatozoa [1]; solution containing 0.003% benzalkonium chloride alone): do not have a total spermicide activity; MIC of benzalkonium chloride (spermatozoa [2]; galenical form: cream): 0.0030 % in weight; MIC of benzalkonium chloride (spermatozoa [2]; galenical form: gel): 0.0033 % in weight; MIC of benzalkonium chloride (spermatozoa [2]; galenical form: ovule): 0.0023 % in weight; MIC of benzalkonium chloride (spermatozoa [2]; galenical form: soluble waffle): 0.0017 % in weight; MIC of benzalkonium chloride (spermatozoa [2]; galenical form: tablet): 0.0025 % in weight; MIC of benzalkonium chloride (spermatozoa [2]; galenical form: tampon): 0.0025 % in weight; Viral titre (poliomyelitis virus; final concentration 10 mg/l, contact time 180 min): ≈ 0 PFU/ml; MIC of benzalkonium chloride (spermatozoa [5]; galenical form: cream): 0.0083 % in weight; MIC of benzalkonium chloride (spermatozoa [5]; galenical form: gel): 0.0080 % in weight; MIC of benzalkonium chloride (spermatozoa [5]; galenical form: ovule): 0.0063 % in weight; MIC of benzalkonium chloride (spermatozoa [5]; galenical form: soluble waffle): 0.0080 % in weight; MIC of benzalkonium chloride (spermatozoa [5]; galenical form: tablet): 0.0095 % in weight; MIC of benzalkonium chloride (spermatozoa [5]; galenical form: tampon): 0.0075 % in weight
Benzalkonium fluoride	–	–	0.005	0.01	0	0	0	0	0	0	0.05	Viral titre (poliomyelitis virus; final concentration 50 mg/l, contact time 120 min): 0 PFU/ml
nonoxynol 9	0.006	0.003	–	–	–	–	–	–	–	–	–	–
